In one data set the test system is rats (F344 strain). Put plainly: Myocardial stunning during myocardial ischemia and reperfusion in rats. It is filed as in vivo, rat. The protocol: In the [Dmt^1]DALDA group, [Dmt^1]DALDA was administered as a 10 nmol bolus, followed by 10 nmol/h continuous infusion. […] The control group received the same volume of saline as a bolus and continuous infusion.
The left anterior descending artery was occluded by applying tension to the sling through a polyethylene 10 tubing and clamping. Successful occlusion was confirmed by typical electrocardiographic changes and wall motion abnormality on echocardiogram. After 10 min of myocardial ischemia, the sling was released to reperfuse the left anterior descending artery. Time to recovery of left ventricular function was defined as the duration from the reperfusion to recovery of fractional shortening above 90% of baseline. Duration of reperfusion arrhythmia was defined as the duration of time to the last three consecutive premature ventricular contractions (salvo) after reperfusion. All procedures were performed in a blinded manner, with the groups assigned letters and their identities unknown to the operators. Likewise, the two independent investigators analyzing the data were blind to the treatment assignments.
All procedures and care of animals were in accordance with guidelines approved by the Institution for the Care and Use of Animals at Weill Medical College of Cornell University. Following anesthesia with 0.2 mg of ketamine and 1 mg xylazine given intraperitoneally, tracheostomy with blunt dissection of the neck and intubation with polyethylene tubing 240 was performed. Mechanical ventilation was started with room air at 90 respirations per min. The internal jugular vein was surgically exposed and a polyethylene tubing was inserted for drug administration. Left thoracotomy was performed through fifth intercostal space to expose the heart. After removal of the pericardium, a 6.0 Nylon sling was placed around the proximal left anterior descending artery just below the level of the left atrial appendage, to be used for occlusion of the coronary artery. Continuous echocardiogram was obtained by inserting a 10 French intracardiac probe into the esophagus (Acuson-Sequoia C256) and a two-dimensional echocardiogram was recorded continuously, with 10 MHz echo signals throughout the procedure. Electrocardiographic monitoring from a standard lead II (AC AMP 700) was digitally recorded throughout the procedure.
M-mode recordings were obtained for the analysis of wall motion and left ventricular systolic function. Left ventricular end diastolic and end systolic dimensions were measured at the level of papillary muscle. Fractional shortening as a measure of the global left ventricular function was calculated as the difference between left ventricular end diastolic and end systolic dimensions divided by end diastolic dimension×100. Systolic wall thickening of the anterior wall in percent, as a measure of the ischemic regional wall motion, was calculated as the difference between left ventricular end diastolic and end systolic wall thickness divided by end diastolic wall thickness×100.
Echocardiographic and electrocardiographic data are presented as mean value±SD. ANOVA was used to compare among the groups. A p-value<0.05 was considered significant.

Data set [1] deals with 5-HT uptake in spinal cord synaptosomes. Put plainly: Inhibition of [3H]5-HT uptake in spinal cord synaptosomes. The class given is biochemical, guinea pig. Particulars: data not shown. The protocol:
Adult female Hartley strain guinea pigs (440-550 g) were decapitated and the spinal cords taken out. A crude synaptosomal (P2) fraction was prepared as described previously (Lonart and Johnson 1995; Li 2000). Briefly, the tissue was minced and homogenized in 10 ml of ice-cold 0.32 M sucrose solution (pH7.4) with a Thomas B075 homogenizor, clearance 0.13-0.18 mm. The homogenate was centrifuged for 10 min at 1,200×g in a Megafuge centrifuge at 4° C. The resulting supernatant was then centrifuged at 20,000×g for 20 min in JA-17 rotor of a Beckman J2-21 centrifuge at 4° C. and the supernatant discarded. The pellet (P2) was gently resuspended in aerated (100% O2) ice-cold buffer containing (in mM):HEPES 20, NaCl 140, KCl 5, NaHCO3 5, MgCl2 1, Na2HPO4 1.2, CaCl2 1.2 and glucose 10, pH 7.4, and centrifuge at 3,000×g for 12 min in a Megafuge at 4° C. Pour out the supernatant. […] Protein concentration was determined by the method of Bradford (1976) at 595 nm using bovine serum albumin as a standard in a Spectra Max plus machine (Molecular Device Co. Sunnyvale, Calif.)
Add buffer 0.6 ml in tubes, synaptosome solution 0.2 ml (about 100 μg), then varying concentration of drug 0.1 ml (each concentration performed in triplicate), put in water bath for pre-incubation for 10 min at 37° C. […] Filter-bound radioactivity was counted by liquid scintillation counter (Beckman LS6001). […]

In data set [2] the test system is [^3H]NE uptake in spinal cord synaptosomes. Put plainly: Inhibition of [3H]NE uptake in spinal cord synaptosomes. Particulars: for pIC50: spinal cord synaptosomes, 95% confidence interval in brackets. The class given is biochemical, guinea pig.
Procedure: Adult female Hartley strain guinea pigs (440-550 g) were decapitated and the spinal cords taken out. A crude synaptosomal (P2) fraction was prepared as described previously (Lonart and Johnson 1995; Li 2000). Briefly, the tissue was minced and homogenized in 10 ml of ice-cold 0.32 M sucrose solution (pH7.4) with a Thomas B075 homogenizor, clearance 0.13-0.18 mm. The homogenate was centrifuged for 10 min at 1,200×g in a Megafuge centrifuge at 4° C. The resulting supernatant was then centrifuged at 20,000×g for 20 min in JA-17 rotor of a Beckman J2-21 centrifuge at 4° C. and the supernatant discarded. The pellet (P2) was gently resuspended in aerated (100% O2) ice-cold buffer containing (in mM):HEPES 20, NaCl 140, KCl 5, NaHCO3 5, MgCl2 1, Na2HPO4 1.2, CaCl2 1.2 and glucose 10, pH 7.4, and centrifuge at 3,000×g for 12 min in a Megafuge at 4° C. Pour out the supernatant. Gently resuspend synaptosome in 10 ml buffer with the aid of a Dounce homogenizor just before using. Protein concentration was determined by the method of Bradford (1976) at 595 nm using bovine serum albumin as a standard in a Spectra Max plus machine (Molecular Device Co. Sunnyvale, Calif.)
Add buffer 0.6 ml in tubes, synaptosome solution 0.2 ml (about 100 μg), then varying concentration of drug 0.1 ml (each concentration performed in triplicate), put in water bath for pre-incubation for 10 min at 37° C. The uptake was initiated by the addition of [^3H]NE (100 nM) or [^3H]5-HT (50 nM) 0.1 ml, continued to incubate for 6 min and terminated by a rapid cooling of sample tubes in ice-cold water for 3 min. The synaptosome were then collected using a Harvest machine with GF/B filter, washed for 3 times with ice-cold 150 mM Tris HCl buffer (pH7.4) 2 ml. After drying, put filter in scintillation liquid vials then add scintillation liquid 6 ml. Filter-bound radioactivity was counted by liquid scintillation counter (Beckman LS6001). The difference in [^3H]NE or [^3H]5-HT accumulation at 37° C. and 0° C. was taken as a measure of active uptake. […]
Another data set has as its system awake sheep. Put plainly: Blood pressure in sheep after intravenous administration. The class given is in vivo. From the text: Even a brief period of increased blood pressure may be a risk factor in patients with hypertension, compromised myocardial function (such as after a myocardial infarction) or patients who are at risk for strokes. The response is short-lasting because the receptor desensitizes rapidly. We can take advantage of this rapid desensitization and eliminate the blood pressure response by administering the drug as a slow intravenous infusion rather than as a rapid bolus injection.
[…] […] Thus the increase in blood pressure can be avoided by using a slow intravenous infusion of [Dmt^1]DALDA.

The conditions of data set [3]: known value (Szeto et al., 1998); cited from earlier work.
Setting [4] is: Five min. after reperfusion, listed as morphine.

pIC50: −log10 of the molar value.

As for `Cc1cc(O)cc(C)c1C[C@H](N)C(=O)N[C@H](CCCNC(=N)N)C(=O)N[C@@H](Cc1ccccc1)C(=O)N[C@@H](CCCCN)C(N)=O` [[Dmt^1]DALDA, 2′,6′-dimethyl-Tyr-D-Arg-Phe-Lys-NH2], the results for the Ejection fraction with rats (F344 strain) (After ligation), in the data set with rats (F344 strain) (Baseline) and with rats (F344 strain) (Five min. after reperfusion) were 31.4 ± 5.6%, 64 ± 9.2% and 48.9 ± 10.1%, respectively. Also, the Fractional shortening stood at 27.1 ± 4.0% in the data set with rats (F344 strain) (After ligation), 47.8 ± 4.2% in the data set on rats (F344 strain) (Baseline), 45.7±2.4% with rats (F344 strain) (Five min. after reperfusion) and 44.0±3.8% in the data set on rats (F344 strain) (Ten min. after reperfusion). For the same compound, the Systolic wall thickening in the data set on rats (F344 strain) (After ligation) was determined as 7.6 ± 4.7%; in the data set with rats (F344 strain) (Baseline) it was 47.0 ± 6.1%; with rats (F344 strain) (Five min. after reperfusion) it was 48.3±7.6%; with rats (F344 strain) (Ten min. after reperfusion), 50.5±8.4%. Moreover, the “effect on contractility during preischemic or postischemic periods” value with rats (F344 strain) (review of continuous echocardiogram) was “no effects of [Dmt^1]DALDA on the contractility”. Also, in data set [1], the “effect on 5-HT uptake” value was “Neither DALDA nor [Dmt^1]DALDA had any effect”. Further, the “inhibition of [3H]NE uptake” value in data set [2] (at a dose of 10^−4) amounted to 80.6±1.5%. This compound also showed a negative-log IC50 (pIC50) in data set [2] of 5.39. In addition, the blood pressure result with awake sheep (constant rate intravenous infusion 0.06-0.6 mg/kg/h for as long as 4 h) was “no significant change in blood pressure”; with awake sheep (intravenous bolus 0.003-0.009 mg/kg, awake sheep), “transient increase in blood pressure”. In the data set with awake sheep (sheep, unpublished data), the “potency relative to DALDA in increasing blood pressure” value came out at 100 fold.
As to `NCCCC[C@H](NC(=O)[C@H](Cc1ccccc1)NC(=O)[C@@H](CCCN=C(N)N)NC(=O)[C@@H](N)Cc1ccc(O)cc1)C(N)=O` [DALDA, H-Tyr-D-Arg-Phe-Lys-NH2], the “effect on 5-HT uptake” value in data set [1] was “Neither DALDA nor [Dmt^1]DALDA had any effect”. Besides, the negative logarithm of the IC50 (pIC50) in data set [2] was 4.27. Further, the elimination half-life in data set [3] was approximately 1.5 h.
With `CN1CC[C@]23c4c5ccc(O)c4O[C@H]2[C@@H](O)C=C[C@H]3[C@H]1C5` [Morphine, morphine, reference compound], the results for the Ejection fraction in the data set on rats (F344 strain) (After ligation), with rats (F344 strain) (Baseline) and with rats (F344 strain) (Five min. after reperfusion) were 31.3 ± 4.2%, 64.6 ± 6.0% and 39.5 ± 11.1%, respectively. Further, the Fractional shortening is recorded as 21.0 ± 3.9% in the data set with rats (F344 strain) (After ligation); 46.5 ± 3.6% with rats (F344 strain) (Baseline); 39.1 ± 6.4% in the data set on rats (F344 strain) (Five min. after reperfusion); 39.1±6.4% in the data set on rats (F344 strain) (setting [4]); 45.3 ± 6.2% in the data set with rats (F344 strain) (Ten min. after reperfusion). For the same compound, the Systolic wall thickening in the data set on rats (F344 strain) (After ligation) is 7.8 ± 6.5%; in the data set on rats (F344 strain) (Baseline), 47.7 ± 4.5%; with rats (F344 strain) (Five min. after reperfusion) it was 33.7 ± 7.5%; in the data set with rats (F344 strain) (setting [4]), 33.7±7.5%; with rats (F344 strain) (Ten min. after reperfusion), 42.2 ± 5.8%. The “Time to recovery of left ventricular function” value in the data set on rats (F344 strain) (from reperfusion to fractional shortening above 90% of baseline, [Dmt1]DALDA 10 nmol + 10 nmol/h, morphine 100 nmol + 100 nmol/h iv) is on record as 6.0 ± 2.5 min. For the same compound, the “duration of reperfusion arrhythmia” value in the data set on rats (F344 strain) (time to last salvo after reperfusion) was determined as 5.8 ± 3.9 min.

Source of the values: patent US7732398B2, “Medicinal uses of mu-opioid receptor agonists” (Cornell Research Foundation, Inc., priority 2000, dated 2010).
